Experimental data from patent US4668499A, “Process for manufacturing hydrogen peroxide” (E. I. Du Pont de Nemours and Company, priority 1986, dated 1987).
Where two headings read alike, the source gives them in different places.

How the values were obtained:
[1] = cited from earlier work
[2] = activity in anthrone reoxidation (disappearance of 2-butylanthrone in fortified working solution under oxygen; liquid chromatography); details: 0.1 weight % amine, 60° C.; for % Original Amount Remaining After 24 Hours: 2-Butylanthrone: 2 weight % 2-butylanthrone, control (no amine) 76
Source text: In each of the examples, oxidized and extracted plant working solution was used. […] The hydrogenation catalyst used was a supported noble-metal catalyst (palladium on alumina). The quinone working solution was a mixture of butyl and amyl anthraquinones and butyl and amyl tetrahydroanthraquinones dissolved in a mixed organic solvent comprised of alkylated benzenes (Cyclosol®) and an aliphatic alcohol (diisobutylcarbinol) together with inerts and degradation products.
To test for activity in anthrone reoxidation, a further portion of the oxidized and extracted working solution was fortified with 2 weight % 2-butylanthrone to represent a highly degraded condition. A catalytic amount (0.1 weight %) amine was added to the fortified working solution in a stoppered bottle which was filled with oxygen. The mixture was shaken for 24 hours at 60° C. under oxygen. The reoxidation of the 2-butylanthrone was followed by means of liquid chromatography.

[3] = amine stability to oxidation under plant extraction-stage conditions (35 weight % aqueous hydrogen peroxide, 60° C., 24 hours; gas chromatography); details: 0.1 weight % amine in working solution, shaken with equal volume 35 weight % aqueous hydrogen peroxide
Source text: (§1) In each of the examples, oxidized and extracted plant working solution was used. […] The quinone working solution was a mixture of butyl and amyl anthraquinones and butyl and amyl tetrahydroanthraquinones dissolved in a mixed organic solvent comprised of alkylated benzenes (Cyclosol®) and an aliphatic alcohol (diisobutylcarbinol) together with inerts and degradation products.
(§2) To test for amine stability to oxidation under plant extraction-stage conditions, a catalytic amount (0.01 grams) of amine was added to 10 grams of oxidized and extracted working solution. This 0.1 weight % mixture was then shaken with an equal volume of 35 weight % aqueous hydrogen peroxide in a stoppered bottle at 60° C. for 24 hours. The loss of amine from the working solution was monitored by means of gas chromatography.

pKa of the amines = format: physicochemical; details: in 50/50 methanol/water; acid titration using glass electrode
Source text: ^(1) pKa values in water from Patai, S., "The Chemistry of Amino
Groups,", Interscience Publishers, New York, New York (1968), Chapter 4.
^(2) pKa values in 50/50 methanol/water determined by acid
titration using glass electrode.

[4] = pilot plant cyclic anthraquinone process with amine addition
Procedure: A pilot plant facility, sized to be approximately 1/1000 that of a commercial unit, was charged with 1.5M lbs. of working solution withdrawn from the commercial unit. The working solution comprised a mixture of butyl and amyl anthraquinones and tetrahydroanthraquinones dissolved in a Cyclosol®/diisobutylcarbinol solvent. Using plant Pd/Al2 O3 slurry catalyst in the hydrogenator, operation of the pilot plant was commenced with a working solution flow of about 1.5 g.p.m. and at about 50° C. The average titer of the reduced working solution leaving the hydrogenator was about 38. "Titer" is an industrial term used as a measure of the depth or degree of reduction of the working solution, that is, the amount of hydroquinone formed expressed as LB. MOLS/10,000 gallons of working solution. Thirty-eight titer represents driving conditions for a commercial facility which is usually operated at 32 titer or less. As operating titer is increased, experience has shown that hydrogen peroxide production is increased but at the expense of increased quinone degradation and quinone use.
Over an initial operating period of two months in the pilot plant without amine addition, the anthrone content of the working solution increased steadily from 0.2 wt. % to 0.7 wt. % and was accompanied by a corresponding decrease in the quinone content of the working solution. Then, 0.05 wt. % of N,N-di-n-butylaniline was added to the pilot plant working solution hold tank. Over the next 36 hours a rapid drop in the anthrone content to about 0.2 wt. % was observed.
Operation of the pilot plant was continued at the 38 titer level for a further four and a half months with a daily production of about 250 lbs. hydrogen peroxide. The N,N-di-n-butylaniline content of the working solution was maintained at about 0.03 wt. % by means of small daily additions. […] Other operating parameters such as yield and product quality were unaffected.

[5] = 35% aqueous hydrogen peroxide
Source text: as §1, §2

[6] = in water, from Patai, The Chemistry of Amino Groups (1968), Chapter 4

Row | Structure (SMILES) | % Original Amount Remaining After 24 Hours: 2-Butylanthrone [2] | % Original Amount Remaining After 24 Hours: Amine [3] | pKa (pKa of the amines) | further results
1 | c1ccc(Nc2ccccc2)cc1 [Example 3, Diphenylamine, reference compound] | 82% | 96% |  | pKa [1, 6]: 0.9
2 | CCCCCCCCc1ccc(N(CCCC)CCCC)cc1 [Example 9, N,N--Di-n-butyl-4-octylaniline] | 11% | 68% | 5.6 | 
3 | CCCCN(CCCC)c1ccccc1 [Example 7, N,N-di-n-butylaniline] | 13% | 76% | 5.2 | pKa [1, 6]: 6.2; anthrone content of the working solution after amine addition ([4]; 0.05 wt. % amine added, over the next 36 hours, from 0.7 wt. %, about 50° C., titer about 38): about 0.2 wt. %; hydrogenation activity ([4]; after addition of 0.05 wt. % amine): An improvement in hydrogenation activity was also noted; loss of quinones ([4]; amine maintained at about 0.03 wt. %, four and a half months, 38 titer): no measurable loss of quinones
4 | c1ccc(CN(Cc2ccccc2)Cc2ccccc2)cc1 [Example 4, Tribenzylamine, reference compound] | 64% | 83% |  | 
5 | CCCCN(CCCC)CCCC [Example 5, Tributylamine, reference compound] | 0% | 2% |  | pKa [1, 6]: 10.9; Reaction was complete in (time) ([2]; 2-butylanthrone reoxidation): three
6 | Cc1cccc(N)c1 [Example 2, m-Toluidine] |  |  |  | pKa ([1]; water): 4.7; % Original Amount Remaining After 24 Hours: Amine [5]: 7%
7 | CCCCN(CCCC)c1ccc(C)cc1 [Example 10, N,N--Di-n-butyl-4-methylaniline] | 10% | 71% | 5.8 | 
8 | CCN(CC)c1ccccc1C [Example 8, N,N--Diethyl-2-methylaniline] | 15% | 43% | 5.3 | 
9 | CCCCN(CCCC)c1ccc(C)c(C)c1 [Example 12, N,N--Di-n-butyl-3,4-dimethylaniline] | 8% | 61% | 6.2 | 
10 | CCN(CC)c1cccc(C)c1 [Example 11, N,N--Diethyl-3-methylaniline] | 5% | 55% | 6.0 | 
11 | CCCCCCN(CCCCCC)c1ccccc1 [Example 6, N,N--Di-n-hexyl-aniline] | 36% | 86% | 5.0 | 
